Measurements from patent US9504672B2, “Compositions and methods for treating or preventing pneumovirus infection and associated diseases” (MicroDose Therapeutx, Inc., priority 2012, dated 2016).
In brackets after ≈: the same amount, converted by molar mass. Like-named read-outs stand apart in the source and are kept apart here.

What was measured:
[1] = Slurry of equal mixture of six phases in 75/25 acetone-water (PXRD); format: physicochemical; details: 25° C., 12 days
Method: An equal powder mixture of six known phases (P-2, P-3, P-4, P-6, P-7 and P-8), 50 mg each were stirred in 75/25 acetone-water solvent (50 mL) at 25° C. over 12 days.

[2] = Thermodynamic relationship (hierarchy) of P-2 and P-3 crystal forms; format: physicochemical
Excerpt: FIG. 17 illustrates the thermodynamic relationship (hierarchy) of the P-2 and P-3 families of crystal forms.

physchem [3] = assay: physchem
Method: Equilibrium solubility of different API forms in aqueous ethanol: This solubility was determined for P-2 and P-3 crystal forms using slurry equilibration and solution concentration measurement with HPLC.

[4] = for Total Imp/Deg: listed as P224-135-2; for number of impurity peaks: listed as P-2
Method: Forced degradation experiments consisted of placing solid samples of P-2 hydrate and P-3 dihydrate materials in sealed glass bottles at 120° C. for 7 days.

physchem [5] = details: 25 °C, organic solvent or mixture, thermodynamic from solid
[6] = Specific surface area (BET); format: physicochemical
[7] = Critical water activity by DVS sorption/desorption isotherms; format: physicochemical
Excerpt: The characteristic gravimetric loss of water is between 1-4.5% w/w.
The characteristic gravimetric loss of water for P-3 dihydrate is between 5.5-8.5% w/w. The profound difference of the DVS curves between the P-2 and P-3 forms can be utilized as a secondary technique for quantitative phase analysis of these forms.

[8] = 40° C./75% RH, 4 weeks
[9] = Excerpt: Four lots of MDT-637 API were micronized using a 2-inch spiral jet mill.
[10] = remark: listed apart in the source
Method: The data are shown for: (a) non-hydrogenated DPPC (Sigma-Aldrich, USA) and (b) hydrogenated DPPC (Lipoid LLC, USA) surfactants at 0.02% w/v concentration. Each data point represents a triplicate sample obtained at temperature 37° C.
Time-dependent solubility study was carried out in simulated lung fluid (SLF) containing the surfactant dipalmitoylphosphatidylcholine (DPPC). The DPPC is a major surfactant present in the human lung.
Simulated lung fluid was prepared according to a method described by Moss et al. (Health Physics 1979, v36, 447-448).
A 0.1% DPPC in water solution was prepared according to a procedure published by Marques et al. (Dissolution Technologies, August 2011). The SLF solution modified with 0.02% DPPC was prepared by diluting the 0.1% DPPC solution with SLF. Refer to NB1181P59-60 for the details on the preparation procedure of SLF and SLF modified with 0.02% DPPC. Two types of DPPC were used in the study. The hydrogenated DPPC was supplied by Lipoid LLC (USA), while the non-hydrogenated DPPC was supplied by Sigma-Aldrich (catalogue # P0763-1G). […] In order to segregate the solid drug substance from the cloudy solution, a dialysis tube (Sigma-Aldrich catalogue # D9277-100FT) was used. A saturated solution of the drug substance in SLF modified with 0.02% DPPC was prepared and carefully transferred into the dialysis tube (˜10 mL in volume). […]

[11] = Bulk powder density and flow indices (volumetric); format: physicochemical
[12] = Particle size of micronized material (Sympatec HELOS & RODOS); format: physicochemical
physchem [13] = details: 37 °C, water, thermodynamic from solid
[14] = Competitive slurry stability study between P-2 and P-3 (PXRD quantitative phase analysis); format: physicochemical; details: 50/50 acetonitrile/water, 25° C.
[15] = human, in vivo
Method: The study consisted of 3 visits: Visit 1 (Screening), Visit 2 (Dosing) and Visit 3 (Follow up); subjects furloughed from the clinic between Visits 2 and 3.
Both active and matched placebo were administered via face mask inhalation from a proprietary delivery system (MicroDose inhaler).
Single doses were administered in the morning. TID doses will be administered at 6 hour intervals, with the 1st of the 3 doses administered in the morning.
Pharmacokinetic variables (Cmax, Tmax, AUC, T1/2) were evaluated based on blood samples drawn at Visit 2.

[16] = human, in vivo; remark: listed apart in the source
Method: Subjects were enrolled in cohorts of 12 subjects. […] The study consisted of 3 visits: Visit 1 (Screening), Visit 2 (Dosing), Visit 3 (Follow up) and subjects remained at the study site for pharmacokinetic (PK) sampling, spirometry, and safety assessments. […] Day 1 was the first day of dosing and Day 10 was the final day of dosing, following which subjects remained at the study site for 24 hours following the last dose for PK sampling and spirometry. Visit 3 was a follow-up visit, 7 to 10 days after the last dose. Cohorts were dosed as follows:
The first doses for twice daily (BID) and three times daily (TID) were administered in the morning, starting at approximately 0700 hours on each day of dosing. BID doses were administered at 12 hour intervals and TID doses were administered at 6 hour intervals each dose day.
Pharmacokinetic endpoints (Cmax, Tmax, AUC, T1/2) and dose proportionality was assessed based on a limited number of plasma samples following the first dose on Day 1 and last dose on Day 10
Pharmacokinetic variables (Cmax, Tmax, AUC, T1/2) were evaluated based on blood samples drawn following first dose (Days 1-2) and last dose (Days 10-11).

RSV = details: background statement, cited from earlier work
[17] = human, in vivo; remark: listed apart in the source
Excerpt: In summary, the MicroDose Inhaler operation comprises the drug powder contained in a protective blister until delivery. The blister is pierced externally and then placed in contact with a piezoelectric vibrator within the MicroDose Inhaler. When the patient inhales, an airflow sensor automatically turns on the piezo which provides energy to deaggregate the particles of powder and aerosolizes them into the inhalation airstream, providing synchronized delivery. The MicroDose Inhaler was triggered by pressure drop and programmed to produce a series of brief aerosol bursts of predetermined duration within the range of 0.1 to 2.0 seconds, preferably 0.1 seconds, early during each inhalation cycle and for 16 consecutive breaths. The studies were conducted as follows:
Study 3: A Double-Blind, Randomized, 3 Period Crossover, Single Ascending Dose Study to Assess the Safety and Tolerability of Inhaled MDT-637 P3 in Subjects with Intermittent or Mild-to-Moderate Persistent Asthma (Asthma Trial)
The primary objective of Study 3 was to assess the safety and tolerability of MDT-637 P3 when inhaled by subjects with Intermittent, or Mild-to-Moderate Persistent, Asthma. A secondary objective of Study 3 was to determine the rate and extent of systemic absorption of MDT-637 and trough nasal wash MDT-637 drug concentrations following dry powder inhalation dosing.
Each subject was dosed on 3 separate days during the study. Each subject received an initial dose of placebo (Period 1), followed by random allocation at Period 2 to a single dose of nasally inhaled MDT-637 P3 or double blind placebo. After an observation and furlough period, subjects returned for Period 3 to receive three doses of study drug (MDT-637 P3 or placebo) over a single day as listed below. The study consisted of 5 visits: Visit 1 (Screening), Visits 2, 3 and 4 (Dosing), and Visit 5 (Follow up); subjects were furloughed from the clinic for 6 up to 14 days between Visits 3 and 4 and 7-8 days between Visit 4 and 5. Subjects who met all of the inclusion criteria and none of the exclusion criteria (Table 19, FIG. 29) at Visit 1 were eligible to return for Visit 2 within 42 days of screening. Subjects were admitted to the study center twice, once for Visit 2 and again for Visit 4. Visit 5, was a safety follow up (outpatient) visit.
The doses of MDT-637 P3 were determined based on previous clinical experience in Study 1. Both placebo and active were administered as a dry powder for nasal inhalation via a face mask using a MicroDose Inhaler device. At Visit 2, all 10 patients were dosed with placebo Once Daily. At Visit 3, subjects were randomly allocated so that 8 subjects were dosed with MDT-637 P3 Once Daily 66 mcg and 2 subjects received double blind placebo. At Visit 4, subjects were again randomly allocated so that 8 subjects were dosed with MDT-637 TID 132 mcg and 2 subjects received double blind placebo.
Pharmacokinetic variables (Cmax, Tmax, AUC, T1/2) were evaluated based on blood samples drawn at Visit 4.

Cc1nnnn1/N=C/c1ccc(O)c(C(c2ccc(O)cc2)c2cc(/C=N/n3nnnc3C)ccc2O)c1 [P-7, phenol, 2,2′-[(4-hydroxyphenyl)methylene]bis[4-[[(5-methyl-1H-tetrazol-1-yl)imino]methyl]]]
form conversion / stability in six-phase slurry [1]: convert to P-2 hydrate

Cc1nnnn1/N=C/c1ccc(O)c(C(c2ccc(O)cc2)c2cc(/C=N/n3nnnc3C)ccc2O)c1 [P-3 ethanolate, phenol, 2,2′-[(4-hydroxyphenyl)methylene]bis[4-[[(5-methyl-1H-tetrazol-1-yl)imino]methyl]]]
thermodynamic stability ([2]; sufficient activity of ethanol, preferably above 0.3): most stable crystal form | solubility thermodynamic (physchem [3]; organic solvent or mixture, thermodynamic from solid, equilibrium solubility): 0.24 mg/mL (≈ 470 µM)

Cc1nnnn1/N=C/c1ccc(O)c(C(c2ccc(O)cc2)c2cc(/C=N/n3nnnc3C)ccc2O)c1 [P-2 hydrate, phenol, 2,2′-[(4-hydroxyphenyl)methylene]bis[4-[[(5-methyl-1H-tetrazol-1-yl)imino]methyl]]]
Grand Total ([4]; 120C/7D): 99.8 Area % | Total Imp/Deg ([4]; 120C/7D): 0.76 Area % | Impurity/Degradation Product A ([4]; 7 days): 0.07 Area % | Impurity/Degradation Product H ([4]; 7 days): 0.40 Area % | Impurity/Degradation Product I ([4]; 7 days): 0.07 Area % | Impurity/Degradation Product K ([4]; 7 days): 0.16 Area % | Impurity/Degradation Product P ([4]; 7 days): 0.06 Area % | Grand Total ([4]; CTRL): 99.9 Area % | Total Imp/Deg ([4]; CTRL): 0.67 Area % | number of impurity peaks ([4]; control): 4 peaks | number of impurity peaks ([4]; stressed sample, 120° C. for 7 days): 5 peaks | form conversion / stability in six-phase slurry [1]: most thermodynamically stable form | thermodynamic stability ([2]; ambient conditions (15-37° C., 40-100% RH)): most stable crystal form | solubility (physchem [5]): 0.19 mg/mL | Specific surface area [6]: 22.6 m^2/g | critical water activity for transition between P-2 hydrate and anhydrous forms ([7]; 1% RH equilibration steps): 30-40 % RH | Characteristic relative humidity of dehydration (20° C.) ([7]; 20° C.): 30-40% | Assay ([8]; open dish, listed as P-2): 98.8% | Rel Subs ([8]; open dish, listed as P-2): 0.68% | Water ([8]; open dish, listed as P-2): 3.5% | change of form / solid-state stability (DSC and PXRD) ([8]; open wide glass bottles): no change of form | chemical stability ([8]; open wide glass bottles): Acceptable chemical stability | effect of micronization on crystallinity, phase purity, chemical degradation [9]: did not affect the crystallinity, phase purity | equilibrium solubility (physchem [3]): 0.4165 mg/mL | factor by which solubility is lower than that of P-3 dihydrate [10]: 5 to 6 | Carr index [11]: 16.7% | Hausner ratio [11]: 1.20 | Poured bulk powder density [11]: 0.16 g/mL | Tapped bulk powder density [11]: 0.19 g/mL | Characteristic medium volume particle size (micronized) [12]: 1.1 μm | solubility (physchem [13]): < 6 nM | composition of slurry for P-2 hydrate ([14]; 4 days (50% at day 0)): 77% | composition of slurry for P-2 hydrate ([14]; 10 days (50% at day 0)): 85%

Cc1nnnn1/N=C/c1ccc(O)c(C(c2ccc(O)cc2)c2cc(/C=N/n3nnnc3C)ccc2O)c1 [P-4, phenol, 2,2′-[(4-hydroxyphenyl)methylene]bis[4-[[(5-methyl-1H-tetrazol-1-yl)imino]methyl]]]
form conversion / stability in six-phase slurry [1]: convert to P-2 hydrate

Cc1nnnn1/N=C/c1ccc(O)c(C(c2ccc(O)cc2)c2cc(/C=N/n3nnnc3C)ccc2O)c1 [P-8, phenol, 2,2′-[(4-hydroxyphenyl)methylene]bis[4-[[(5-methyl-1H-tetrazol-1-yl)imino]methyl]]]
form conversion / stability in six-phase slurry [1]: convert to P-2 hydrate

Cc1nnnn1/N=C/c1ccc(O)c(C(c2ccc(O)cc2)c2cc(/C=N/n3nnnc3C)ccc2O)c1 [P-6, phenol, 2,2′-[(4-hydroxyphenyl)methylene]bis[4-[[(5-methyl-1H-tetrazol-1-yl)imino]methyl]]]
form conversion / stability in six-phase slurry [1]: convert to P-2 hydrate

Cc1nnnn1/N=C/c1ccc(O)c(C(c2ccc(O)cc2)c2cc(/C=N/n3nnnc3C)ccc2O)c1 [MDT-637, phenol, 2,2′-[(4-hydroxyphenyl)methylene]bis[4-[[(5-methyl-1H-tetrazol-1-yl)imino]methyl]]]
clinically significant changes in labs, vital signs, ECGs, physical exams [15]: no clinically significant changes in pulmonary function, ECG, laboratory values vitals or physical examination | changes in pulmonary function / pulmonary AEs (serial spirometry) [16]: no significant changes were observed in pulmonary function or reports of pulmonary adverse events | potency relative to ribavirin (RSV): 40,000 times | reduction of RSV viral count (RSV; pre- and post-infection): effective in reducing RSV viral count both pre- and post-infection | clinically significant changes in pulmonary function / pulmonary AEs [17]: no clinically significant changes in pulmonary function or reports of pulmonary adverse events
